Test results reported in US20210317140A1, “Heterocyclic Compounds and Methods of Use” (MEDIVATION TECHNOLOGIES, INC, priority 2013, published 2021).
“And” between values parts separate entries of the source, which are not always exact repeats. Equal entries are not always repeated.

Experiments:
BTK = biological target: T1, BTK (Homo sapiens, UniProt Q06187); assay: BTK kinase assay (HotSpot, 33P ATP); assay type: biochemical; details: for IC50: 10 dose IC50, 10 μM ATP; for BTK @ 0.01 μM (% Inh): 0.01 μM compound; for BTK @ 0.01 μM (% Inh) / BTK @ 0.1 μM (% Inh) / BTK @ 1 μM (% Inh): 10 μM ATP; for BTK @ 0.1 μM (% Inh): 0.1 μM compound; for BTK @ 1 μM (% Inh): 1 μM compound
T1 construct: purchased Reaction Biology Corporation
Protocol: (§1) Compounds of the invention were profiled in a 10 dose IC50 panel against BTK and PI3Kδ, both provided by Reaction Biology Corporation.
BTK assay: In vitro profiling protein kinases was performed using the “HotSpot” assay platform. Briefly, specific kinase/substrate pairs along with required cofactors were prepared in reaction buffer. Compounds were prepared as 10 mM stock solutions in DMSO. Compounds were delivered into the reaction, followed 15-20 minutes later by addition of a mixture of ATP (Sigma, St. Louis Mo.) and ^33P ATP (Perkin Elmer, Waltham Mass.) to a final concentration of 10 μM. […] IC50 values and curve fits were obtained using Prism (GraphPad Software). Buffer Conditions: 20 mM Hepes (pH 7.5), 10 mM MgCl2, 1 mM EGTA, 0.02% Brij35, 0.02 mg/mL BSA, 0.1 mM Na3VO4, 2 mM DTT, 1% DMSO.

PI3Kδ = biological target: T2, PI3Kδ (Homo sapiens, UniProt O00329); assay: PI3Kδ kinase assay (HTRF, PIP3 detection); assay type: biochemical; details: for IC50: 10 dose IC50, 10 μM ATP; for PI3Kδ @ 0.01 μM (% Inh): 0.01 μM compound; for PI3Kδ @ 0.01 μM (% Inh) / PI3Kδ @ 0.1 μM (% Inh) / PI3Kδ @ 1 μM (% Inh): 10 μM ATP; for PI3Kδ @ 0.1 μM (% Inh): 0.1 μM compound; for PI3Kδ @ 1 μM (% Inh): 1 μM compound
T2 construct: purchased Reaction Biology Corporation
From the text: as §1
PI3Kδ assay: The PIP3 product is detected by displacement of biotin-PIP3 from an energy transfer complex consisting of Europium labeled anti-GST monoclonal antibody, a GST-tagged pleckstrin homology (PH) domain, biotinylated PIP3 and Streptavidin-Allophycocyanin (APC). […] The PIP3 product formed by PI 3-Kinase(h) activity displaces biotin-PIP3 from the complex resulting in a loss of energy transfer and thus a decrease in signal. This is a 3-step reaction: First, the kinase reaction with PIP2 substrate is carried out in the presence of ATP (10 μM), and the reaction is quenched with stop Solution, and then finally detect by adding Detection Mixture followed by incubation (10 min). Reaction procedure: 1) Prepare substrate in freshly prepared Reaction Buffer. 2) Deliver kinase into the substrate solution and gently mix. 3) Deliver compounds in 100% DMSO (1 μM) into the kinase reaction mixture by Acoustic technology (Echo550; nanoliter range), incubate for 10 min at RT. 4) Deliver ATP into the reaction mixture to initiate the reaction. 5) Incubate for 30 min at 30° C. 6) Quench the reaction with Stop Solution. 7) Add Detection Mixture, and incubate for overnight. […] The emission ratio is converted into μM PIP3 production based on PIP3 standard curves. The nonlinear regression to obtain the standard curve and IC50 values are performed using Graphpad Prism software. Assay Buffer: HEPES 50 mM (pH7.0), NaN3 0.02%, BSA 0.01%, Orthovanadate 0.1 mM, 1% DMSO. Detection buffer: HEPES 10 mM (pH7.0), BSA 0.02%, KF 0.16 M, EDTA 4 mM. Substrate: 10 μM PIP2 substrate (PI(4,5)P2).

T1 sequence (Q06187 whole entry): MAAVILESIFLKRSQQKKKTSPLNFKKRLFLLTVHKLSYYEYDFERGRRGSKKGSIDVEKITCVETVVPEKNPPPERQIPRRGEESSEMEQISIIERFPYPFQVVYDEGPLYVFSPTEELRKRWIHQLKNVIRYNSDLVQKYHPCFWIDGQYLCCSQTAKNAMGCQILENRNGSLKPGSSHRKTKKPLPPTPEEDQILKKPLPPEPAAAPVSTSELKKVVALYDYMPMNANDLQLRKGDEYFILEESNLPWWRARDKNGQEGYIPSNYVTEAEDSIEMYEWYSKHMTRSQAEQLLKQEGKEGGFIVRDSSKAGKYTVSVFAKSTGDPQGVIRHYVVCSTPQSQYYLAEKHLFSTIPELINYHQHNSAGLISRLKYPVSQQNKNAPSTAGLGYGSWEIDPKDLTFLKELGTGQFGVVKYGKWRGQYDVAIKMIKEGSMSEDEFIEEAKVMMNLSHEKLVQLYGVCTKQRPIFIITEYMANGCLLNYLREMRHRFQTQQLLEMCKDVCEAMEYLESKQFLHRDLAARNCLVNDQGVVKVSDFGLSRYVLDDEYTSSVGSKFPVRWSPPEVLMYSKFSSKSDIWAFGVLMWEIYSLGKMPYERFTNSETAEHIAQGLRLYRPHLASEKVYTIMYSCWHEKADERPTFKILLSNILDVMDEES
T2 sequence (O00329 whole entry): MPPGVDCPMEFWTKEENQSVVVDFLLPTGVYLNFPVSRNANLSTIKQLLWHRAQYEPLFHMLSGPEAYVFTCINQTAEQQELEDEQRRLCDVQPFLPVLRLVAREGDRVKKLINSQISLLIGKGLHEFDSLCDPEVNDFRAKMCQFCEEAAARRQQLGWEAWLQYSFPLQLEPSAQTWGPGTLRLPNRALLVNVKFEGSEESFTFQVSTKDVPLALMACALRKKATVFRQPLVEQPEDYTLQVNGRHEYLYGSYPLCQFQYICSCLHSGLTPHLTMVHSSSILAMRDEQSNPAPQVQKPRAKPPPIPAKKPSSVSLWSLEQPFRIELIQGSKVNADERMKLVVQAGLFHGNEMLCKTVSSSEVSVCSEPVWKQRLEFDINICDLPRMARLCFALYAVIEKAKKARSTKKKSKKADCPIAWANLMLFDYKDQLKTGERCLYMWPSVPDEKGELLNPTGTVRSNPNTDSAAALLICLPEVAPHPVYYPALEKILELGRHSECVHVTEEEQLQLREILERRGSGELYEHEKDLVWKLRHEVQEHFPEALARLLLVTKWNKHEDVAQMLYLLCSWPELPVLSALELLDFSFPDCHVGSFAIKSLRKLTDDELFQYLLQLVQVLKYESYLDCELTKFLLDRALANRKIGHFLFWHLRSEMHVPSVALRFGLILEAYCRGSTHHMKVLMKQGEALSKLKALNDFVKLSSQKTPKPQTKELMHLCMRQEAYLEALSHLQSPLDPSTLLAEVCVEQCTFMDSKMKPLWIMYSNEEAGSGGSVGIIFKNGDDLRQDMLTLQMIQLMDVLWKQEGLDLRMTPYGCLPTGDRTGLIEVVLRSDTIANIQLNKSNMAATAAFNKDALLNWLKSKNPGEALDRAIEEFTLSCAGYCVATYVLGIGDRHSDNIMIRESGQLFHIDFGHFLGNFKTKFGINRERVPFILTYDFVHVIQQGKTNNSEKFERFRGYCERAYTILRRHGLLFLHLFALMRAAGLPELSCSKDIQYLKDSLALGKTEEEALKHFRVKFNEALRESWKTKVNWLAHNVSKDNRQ
T2 sequence (P27986 whole entry partner): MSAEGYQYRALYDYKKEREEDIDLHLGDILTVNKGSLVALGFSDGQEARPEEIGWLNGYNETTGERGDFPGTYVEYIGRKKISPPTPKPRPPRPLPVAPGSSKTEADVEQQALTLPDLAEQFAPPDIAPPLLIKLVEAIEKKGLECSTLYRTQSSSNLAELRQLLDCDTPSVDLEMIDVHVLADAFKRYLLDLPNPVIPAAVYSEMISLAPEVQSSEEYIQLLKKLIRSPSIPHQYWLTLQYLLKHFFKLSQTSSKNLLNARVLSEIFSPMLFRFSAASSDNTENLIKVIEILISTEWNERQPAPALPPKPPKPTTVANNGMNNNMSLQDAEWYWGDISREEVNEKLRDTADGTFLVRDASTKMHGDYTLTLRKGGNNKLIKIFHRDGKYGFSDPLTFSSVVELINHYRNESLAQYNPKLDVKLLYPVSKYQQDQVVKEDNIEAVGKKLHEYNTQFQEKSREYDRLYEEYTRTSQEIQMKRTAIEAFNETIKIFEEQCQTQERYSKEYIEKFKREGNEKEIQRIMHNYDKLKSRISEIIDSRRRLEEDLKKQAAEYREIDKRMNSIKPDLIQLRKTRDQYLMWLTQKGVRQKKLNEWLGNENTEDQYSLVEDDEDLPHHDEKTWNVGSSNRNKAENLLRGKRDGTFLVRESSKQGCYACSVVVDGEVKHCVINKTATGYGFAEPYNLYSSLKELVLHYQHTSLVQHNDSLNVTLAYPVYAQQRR

SMILES | IC50 (BTK) [nM] | IC50 (PI3Kδ) [nM] | BTK @ 0.01 μM (% Inh) (BTK) | BTK @ 0.1 μM (% Inh) (BTK) | PI3Kδ @ 0.01 μM (% Inh) (PI3Kδ) | PI3Kδ @ 0.1 μM (% Inh) (PI3Kδ) | BTK @ 1 μM (% Inh) (BTK) | PI3Kδ @ 1 μM (% Inh) (PI3Kδ)
Nc1ncnc2c1c(-c1cc(F)c(F)c(F)c1)nn2C1Cc2ccccc2C1 [Compound No. 86, 1-(2,3-dihydro-1H-inden-2-yl)-3-(3,4,5-trifluorophenyl)-1H-pyrazolo[3,4-d]pyrimidin-4-amine] | – | – | 8.08 | 21.34 % Inh | 17.21 | 20.84 % Inh | – | –
Nc1ncnc2c1c(-c1ccnc3[nH]ccc13)nn2C1Cc2ccccc2C1 [Compound No. 70, 1-(2,3-dihydro-1H-inden-2-yl)-3-{1H-pyrrolo[2,3-b]pyridin-4-yl}-1H-pyrazolo[3,4-d]pyrimidin-4-amine] | – | – | – | 12.11 % Inh | – | 9.29 % Inh | 36.56 | 56.41
Cc1ccc(-c2nn(C3Cc4ccccc4C3)c3ncnc(N)c23)cc1N [Compound No. 46, 3-(3-amino-4-methylphenyl)-1-(2,3-dihydro-1H-inden-2-yl)-1H-pyrazolo[3,4-d]pyrimidin-4-amine] | 21.2 | 1290 | – | 85.71 % Inh | – | 30.55 % Inh | 96.3 | 67.34
CCCCOc1cc(-c2nn(C3Cc4ccccc4C3)c3ncnc(N)c23)ccc1OC [Compound No. 90, 3-(3-butoxy-4-methoxyphenyl)-1-(2,3-dihydro-1H-inden-2-yl)-1H-pyrazolo[3,4-d]pyrimidin-4-amine] | – | – | 7.39 | 6.79 % Inh | 9.23 | 44.39 % Inh | – | –
Nc1ncnc2c1c(-c1cccc(F)c1)nn2C1Cc2ccccc2C1 [Compound No. 88, 1-(2,3-dihydro-1H-inden-2-yl)-3-(3-fluorophenyl)-1H-pyrazolo[3,4-d]pyrimidin-4-amine] | – | – | 7.67 | 17.55 % Inh | 18.98 | 15.89 % Inh | – | –
COc1cc(F)cc(-c2cn(C3Cc4ccccc4C3)c3ncnc(N)c23)c1 [Compound No. 62, 7-(2,3-dihydro-1H-inden-2-yl)-5-(3-fluoro-5-methoxyphenyl)-7H-pyrrolo[2,3-d]pyrimidin-4-amine] | – | – | – | 57.13 % Inh | – | 17.28 % Inh | 91.61 | 43.03
CC(=O)Nc1cccc(-c2nn(C3Cc4ccccc4C3)c3ncnc(N)c23)c1 [Compound No. 59, N-{3-[4-amino-1-(2,3-dihydro-1H-inden-2-yl)-1H-pyrazolo[3,4-d]pyrimidin-3-yl]phenyl}acetamide] | – | – | – | 14.08 % Inh | – | 17.93 % Inh | 19.76 | 5.79
Nc1ncnc2c1c(-c1cccc(O)c1)nn2C1Cc2ccccc2C1 [Compound No. 40, 3-[4-amino-1-(2,3-dihydro-1H-inden-2-yl)-1H-pyrazolo[3,4-d]pyrimidin-3-yl]phenol] | – | – | – | 66.35 % Inh | – | 41.21 % Inh | – | –
Nc1ncnc2c1c(-c1ccc3cc[nH]c3c1)nn2C1Cc2ccccc2C1 [Compound No. 39, 1-(2,3-dihydro-1H-inden-2-yl)-3-(1H-indol-6-yl)-1H-pyrazolo[3,4-d]pyrimidin-4-amine] | – | – | – | 45.81 % Inh and 37.23 % Inh | – | 24.12 % Inh and 30.2 % Inh | 87.24 | 67.63
Nc1ncnc2c1c(-c1ccc(Br)c(O)c1)nn2C1CCc2ccccc21 (centres unmarked) [36b, 5-[4-amino-1-(2,3-dihydro-1H-inden-1-yl)-1H-pyrazolo[3,4-d]pyrimidin-3-yl]-2-bromophenol] | 123 | 155 | – | 33.82 % Inh | – | 40.07 % Inh | 76.93 | 79.26
Nc1cccc(-c2nn(C3Cc4ccccc4C3)c3ncnc(N)c23)c1 [Compound No. 45, 3-(3-aminophenyl)-1-(2,3-dihydro-1H-inden-2-yl)-1H-pyrazolo[3,4-d]pyrimidin-4-amine] | – | – | – | 49.32 % Inh | – | 12.84 % Inh | 87.47 | 44.54
COc1ccc(-c2nn(C3Cc4ccccc4C3)c3ncnc(N)c23)cc1N [Compound No. 73, 3-(3-amino-4-methoxyphenyl)-1-(2,3-dihydro-1H-inden-2-yl)-1H-pyrazolo[3,4-d]pyrimidin-4-amine] | 30.5 | 325 | – | 72.03 % Inh | – | 14.37 % Inh | 95.31 | 52.39
CC(=O)Nc1cc(F)cc(-c2nn(C3Cc4ccccc4C3)c3ncnc(N)c23)c1 [Compound No. 60, N-{3-[4-amino-1-(2,3-dihydro-1H-inden-2-yl)-1H-pyrazolo[3,4-d]pyrimidin-3-yl]-5-fluorophenyl}acetamide] | – | – | – | 16.91 % Inh | – | 10.65 % Inh | 30.02 | 31.35

Other lines, results leading:

IC50 (BTK) [nM] | IC50 (PI3Kδ) [nM] | BTK @ 0.01 μM (% Inh) (BTK) | BTK @ 0.1 μM (% Inh) (BTK) | PI3Kδ @ 0.01 μM (% Inh) (PI3Kδ) | PI3Kδ @ 0.1 μM (% Inh) (PI3Kδ) | BTK @ 1 μM (% Inh) (BTK) | PI3Kδ @ 1 μM (% Inh) (PI3Kδ) | SMILES
192 | 104 | – | – | – | – | – | – | Nc1ncnc2c1c(-c1ccc(O)cc1)nn2C1CCc2ccccc2C1 (racemic) [compound 21, 4-(4-amino-1-(1,2,3,4-tetrahydronaphthalen-2-yl)-1H-pyrazolo[3,4-d]pyrimidin-3-yl)phenol]
69.8 | 2390 | – | – | – | – | – | – | Nc1ncnc2c1c(-c1ccc(F)cc1)nn2C1CCc2ccccc2C1 (racemic) [compound 13, 3-(4-fluorophenyl)-1-(1,2,3,4-tetrahydronaphthalen-2-yl)-1H-pyrazolo[3,4-d]pyrimidin-4-amine]
217 | 13 | – | 35.16 % Inh | – | 64.19 % Inh | – | – | Nc1ncnc2c1c(-c1cc(O)cc(F)c1)nn2C1CCc2ccccc21 (centres unmarked) [compound 30, 3-(4-amino-1-indan-1-yl-pyrazolo[3,4-d]pyrimidin-3-yl)-5-fluoro-phenol]
– | – | 9.24 | 21.87 % Inh | 16.23 | 51.48 % Inh | – | – | Nc1ncnc2c1c(-c1cc(O)c(F)c(F)c1)nn2C1Cc2cc(F)ccc2C1=O (centres unmarked) [compound 127, 2-[4-amino-3-(3,4-difluoro-5-hydroxyphenyl)-1H-pyrazolo[3,4-d]pyrimidin-1-yl]-5-fluoro-2,3-dihydro-1H-inden-1-one]
– | – | – | 31.62 % Inh | – | 6.22 % Inh | – | – | Nc1ncnc2c1c(-c1ccc(F)c(O)c1)nn2C1CCCc2ccccc21 (centres unmarked) [compound 12, 5-(4-amino-1-tetralin-1-yl-pyrazolo[3,4-d]pyrimidin-3-yl)-2-fluoro-phenol]
– | – | 17.28 | 74.7 % Inh | −6.1 | 56.02 % Inh | – | – | Nc1ncnc2c1c(-c1cc(O)c(F)c(F)c1)c(Cl)n2C1Cc2ccccc2C1 [compound 134, 5-[4-amino-6-chloro-7-(2,3-dihydro-1H-inden-2-yl)-7H-pyrrolo[2,3-d]pyrimidin-5-yl]-2,3-difluorophenol]
891 | 1340 | – | – | – | – | – | – | COc1cc(F)cc(-c2nn(C3CCc4ccccc4C3)c3ncnc(N)c23)c1 (centres unmarked) [compound 7, 3-(3-fluoro-5-methoxyphenyl)-1-(1,2,3,4-tetrahydronaphthalen-2-yl)-1H-pyrazolo[3,4-d]pyrimidin-4-amine]
– | – | – | 43.28 % Inh | – | 56.42 % Inh | – | – | Nc1ncnc2c1c(-c1ccc(Br)c(O)c1)nn2C1CCc2ccccc21 (centres unmarked) [compound 36, 5-[4-amino-1-(2,3-dihydro-1H-inden-1-yl)-1H-pyrazolo[3,4-d]pyrimidin-3-yl]-2-bromophenol]
– | – | – | 14.0 % Inh | – | 15.27 % Inh | – | – | NC(=O)c1ccc(-c2nn(C3CCc4ccccc4C3)c3ncnc(N)c23)cc1 (centres unmarked) [compound 28, 4-(4-amino-1-tetralin-2-yl-pyrazolo[3,4-d]pyrimidin-3-yl)benzamide]
